Data: PubChem BioAssay (NCI)
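Where inhibition never reached the appropriate level, the endpoint shown equals the highest concentration tested. Otherwise, values were interpolated linearly from a five-concentration, 48-hour dose response in 96-well plates. At the GI50, growth is halved. TGI is the concentration that stops growth completely.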

How the values were obtained:
Test in all cases: inhibition of tumour cell growth, NCI panel, 48 h
A498 renal = tested on: A498 renal
CAKI-1 renal = tested on: CAKI-1 renal
DU-145 prostate = tested on: DU-145 prostate
MCF7 breast = tested on: MCF7 breast
MDA-MB-231 breast = tested on: MDA-MB-231 breast
MDA-MB-435 = tested on: MDA-MB-435
MOLT-4 leukemia = tested on: MOLT-4 leukemia
SK-MEL-2 melanoma = tested on: SK-MEL-2 melanoma
SK-MEL-28 melanoma = tested on: SK-MEL-28 melanoma
UACC-62 melanoma = tested on: UACC-62 melanoma

Row | Structure (SMILES) | GI50 (A498 renal) [µM] | TGI (A498 renal) [µM] | GI50 (CAKI-1 renal) [µM] | TGI (CAKI-1 renal) [µM] | GI50 (DU-145 prostate) [µM] | TGI (DU-145 prostate) [µM] | GI50 (MCF7 breast) [µM] | TGI (MCF7 breast) [µM] | GI50 (MDA-MB-231 breast) [µM] | TGI (MDA-MB-231 breast) [µM] | GI50 (MDA-MB-435) [µM] | TGI (MDA-MB-435) [µM] | GI50 (MOLT-4 leukemia) [µM] | TGI (MOLT-4 leukemia) [µM] | GI50 (SK-MEL-2 melanoma) [µM] | TGI (SK-MEL-2 melanoma) [µM] | GI50 (SK-MEL-28 melanoma) [µM] | TGI (SK-MEL-28 melanoma) [µM] | GI50 (UACC-62 melanoma) [µM] | TGI (UACC-62 melanoma) [µM]
1 | CC(C)(C)OC(=O)NCCCCCCCCCCn1c2c(c3ccccc3c1=O)C(=O)c1ccccc1-2 | 26.2 | 66 | 27.9 | > 100 | 96.6 | > 100 | > 100 | > 100 | 17.9 | 85.9 | > 100 | > 100 | 16.2 | 31.2 | 21.1 | 49.7 | > 100 | > 100 | 43.9 | > 100
2 | Cc1ncc(-c2ccnc(Nc3ccc(S(C)(=O)=O)cc3)n2)n1C(C)C | 0.647 | 2.55 | 0.805 | > 10 | 1.32 | > 10 | 0.523 | > 10 | 1.88 | > 9.48 | 1.41 | > 5.6 | 1.03 | 4.99 | 1.38 | 3.17 | 1.28 | > 5.69 | 1.45 | 3.64
3 | O=C(Nc1cccc(-n2cc(-c3ccncc3)c(-c3ccc(O)c(Cl)c3)n2)c1)c1ccc(Cl)c(Cl)c1 | 1.94 | 89.9 | 3.38 | > 100 | 20.9 | > 100 | 4.08 | > 100 | 1.52 | 8.58 | 6.06 | 46.2 | 7.19 | > 100 | 11.6 | 38.6 | 3.45 | 19.4 | 10.8 | 47.6
4 | CN(C)CCNc1nc2ccccc2c2occc12 | 48.5 | 81.6 | 52.7 | > 100 | 32 | > 100 | 32.4 | > 100 | 23.7 | 77.6 | 54.5 | > 100 | 20.3 | > 100 | 33.8 | > 100 | 27 | > 100 | 16.6 | 34.3
5 | CN(C)c1ccc(C(=C2C=CC(=[N+](C)C)C=C2)c2ccccc2Cl)cc1 | 0.289 | 1.04 | 0.455 | 2.76 | 0.374 | 1.31 | 0.237 | 0.899 | 0.338 | 1.73 | 0.309 | 1.11 | 0.593 | 12.9 | 0.339 | 0.899 | 0.4 | 1.44 | 0.323 | 1.43
6 | Nc1nc(-c2cc(-c3cccc4ccccc34)nc(N)n2)cc(-c2cccc3ccccc23)n1 |  | > 100 |  | > 100 |  | > 100 |  | > 100 |  | > 100 |  | > 100 |  | > 100 |  | > 100 |  | > 100 |  | > 100
7 | COc1ccc(-c2nnc(Nc3nc(O)c(C4=c5cc(F)ccc5=NC4=O)s3)o2)cc1 | 41.7 | > 100 | 28.8 | 99.3 | 46.9 | > 100 | 34.5 | > 100 | 19.8 | 52.2 | 36.2 | > 100 | 30.4 | > 100 | 33.7 | > 100 | > 100 | > 100 | 35.1 | > 100
8 | CCc1ncnc2cc(OCC3CO3)c(OC)cc12 (stereo not drawn) |  | 58.1 |  | > 100 |  | > 100 |  | > 42.7 |  | 60.9 |  | 21.7 |  |  |  | 12.4 |  | 37.4 |  | 18.4
9 | COc1cc(C2C3=C(COC3=O)Nc3cc4c(cc32)OCO4)cc2c1OCO2 (stereo not drawn) | 0.0276 | 0.12 | 0.156 | > 100 | 0.0832 | 0.459 | 0.0393 | > 100 | 0.128 | > 100 | 0.0238 | 0.0664 | 0.123 | > 100 | 0.113 | > 26 |  | > 100 | 0.0519 | > 100
10 | CCN1C(=O)N(CC)C2C1NN=c1s/c(=C\c3cccc([N+](=O)[O-])c3)c(=O)n12 (stereo not drawn) | 0.0254 | 0.0916 | 0.052 | > 100 | 0.101 | > 100 | 0.0366 | > 100 | 0.231 |  | 0.0214 | 0.0504 | 0.24 | > 100 | 0.453 | > 100 |  | > 100 | 0.0539 | > 100
11 | C[C@]12CC[C@@H]3c4ccc(O)cc4CC[C@H]3[C@@H]1CC[C@@H]2NS(=O)(=O)c1ccc2ccccc2c1 | 1.72 | 4.01 | 3.16 | 10.4 | 4.14 | 17.5 | 3.36 | 9.48 | 1.81 | 4.68 | 2.31 | 5.89 | 3.37 | > 100 | 2.75 | 7.94 | 2.31 | 5.92 | 1.75 | 3.9
12 | Cn1c(C(C)(C)OC(=O)Oc2ccccc2)cnc1[N+](=O)[O-] |  | > 100 |  | > 100 |  | > 100 |  | > 100 |  | > 100 |  | > 100 |  | 45.8 |  | > 100 |  | > 100 |  | > 100
13 | N#C/C(=C\c1cccc2cnccc12)N1N=NC2C=CC=CC21 (stereo not drawn) | 1.63 | 5.59 | 1.7 | > 100 | 3.55 | > 100 | 0.557 | > 100 | 1.94 | 8.05 | 2.87 | > 100 | 3.21 | > 100 | 4.49 | > 100 | 4.1 | > 100 |  | 
14 | Cc1cc2c(=O)[nH]c(N)nc2nc1C |  | > 100 |  | > 100 |  | > 100 |  | > 100 |  | > 100 |  | > 100 |  |  |  | > 100 |  | > 100 |  | > 100
